“Also recorded” adds a separate entry of the source. Like-named read-outs stand apart in the source and are kept apart here.
Tests used:
bovine complex II = details: cited from earlier work
Succinate-cyt c activity [1] = details: Rat; cited from earlier work
P. y. yoelii complex II = details: cited from earlier work; for IC50: P. y. yoelii, read-out: IC50 of Succinate-cyt c Activity
[2] = target: succinate-cytochrome c reductase activity (Complex II-III); experiment: Inhibition of succinate-cytochrome c reductase activity (Complex II-III) of E. tenella mitochondria-rich fraction; type: biochemical, Eimeria tenella; details: for IC50: E. tenella mitochondria-rich fraction, complex II-III activity, read-out: IC50 of Succinate-cyt c Activity
Method: (§1) All enzyme assays were performed using 5–10 µg of the mitochondria-rich fraction using black quartz cuvettes in 0.6 mL reaction mixture at 25 °C. The reagents used in each assay were mixed with a reaction buffer containing 50 mM potassium phosphate (pH 7.4) (KPi Buffer) and 2 mM EDTA.
Cytochrome c–linked NADH, G3P, malate, succinate, and DHO dehydrogenase activities were determined in a reaction mixture containing 30 µM horse heart cytochrome c and 2 mM KCN at 550 nm (ε = 19 mM^−1 cm^−1) by adding 0.2 mM NADH, 5 mM malate, 5 mM G3P, 8.3 mM succinate, and 0.4 mM DHO, respectively, into the reaction buffer.
(§2) […]; As the positive control for complex II-III inhibition assay, 0.1 μM of stigmatellin (complex III inhibitor) was used.

E. tenella complex II = E. tenella complex II (Eimeria tenella, UniProt U6KGY0+U6KWN9); experiment: Inhibition of succinate-dUQ (SQR) activity of E. tenella complex II; type: biochemical; details: for Inhibition of E. tenella complex II: even at higher concentration of 50 μM
Method: as §1
Individual G3PDH, MQO, SDH, and DHODH activities were assayed at 278 nm in the presence of each substrate as described above, however, instead of cytochrome c, 50 µM of decylubiquinone (dUQ) (ε = 15 mM^−1 cm^−1) was added. The NDH-2 activity was measured following the consumption of NADH at 340 nm.
as §2

complex II [3] = tested on: complex II; set-up: method as in PMID 19505951; details: read-out: IC50 for complex II from Leishmania tarentolae; cited from earlier work
complex II [4] = tested on: complex II; set-up: method as in PMID 19505951; details: read-out: IC50 for complex II from T. cruzi; cited from earlier work
complex II [5] = tested on: complex II; set-up: method as in PMID 19505951; details: read-out: IC50 for complex II from Trypanosoma brucei; cited from earlier work
Succinate-cyt c activity [6] = details: Porcine; cited from earlier work
complex II [7] = tested on: complex II; set-up: method as in PMID 19505951; details: read-out: IC50 for complex II from L. donovani; cited from earlier work
Ascaris suum complex II = details: cited from earlier work
[8] = tested on: NADH oxidase activity (NDH-2-Complex III-IV); experiment: NADH oxidase activity (NDH-2-Complex III-IV) of E. tenella mitochondria-rich fraction; type: biochemical, Eimeria tenella; details: for NADH oxidase specific activity after addition: consecutive additions: 2 mM KCN, then 2 mM fumarate, then 5 mM malonate, without additions 5.9 ± 0.9, experiment C

Sequence of E. tenella complex II (U6KGY0 entry or part of it): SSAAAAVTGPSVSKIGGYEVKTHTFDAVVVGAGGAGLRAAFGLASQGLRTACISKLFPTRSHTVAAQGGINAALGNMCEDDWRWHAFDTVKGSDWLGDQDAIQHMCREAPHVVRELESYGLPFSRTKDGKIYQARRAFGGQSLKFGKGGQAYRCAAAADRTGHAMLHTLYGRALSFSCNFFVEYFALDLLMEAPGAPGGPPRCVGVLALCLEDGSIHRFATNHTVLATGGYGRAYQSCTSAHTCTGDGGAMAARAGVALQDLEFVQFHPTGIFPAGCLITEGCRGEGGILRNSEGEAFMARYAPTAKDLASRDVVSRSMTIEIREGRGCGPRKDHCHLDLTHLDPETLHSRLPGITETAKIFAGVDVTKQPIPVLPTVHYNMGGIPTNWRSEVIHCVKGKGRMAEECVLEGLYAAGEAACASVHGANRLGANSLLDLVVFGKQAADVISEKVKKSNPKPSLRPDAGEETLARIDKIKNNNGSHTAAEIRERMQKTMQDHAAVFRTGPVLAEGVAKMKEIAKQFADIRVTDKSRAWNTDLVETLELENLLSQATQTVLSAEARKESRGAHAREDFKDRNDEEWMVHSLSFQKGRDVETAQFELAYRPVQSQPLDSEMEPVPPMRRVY
Sequence of E. tenella complex II (U6KWN9 entry or part of it): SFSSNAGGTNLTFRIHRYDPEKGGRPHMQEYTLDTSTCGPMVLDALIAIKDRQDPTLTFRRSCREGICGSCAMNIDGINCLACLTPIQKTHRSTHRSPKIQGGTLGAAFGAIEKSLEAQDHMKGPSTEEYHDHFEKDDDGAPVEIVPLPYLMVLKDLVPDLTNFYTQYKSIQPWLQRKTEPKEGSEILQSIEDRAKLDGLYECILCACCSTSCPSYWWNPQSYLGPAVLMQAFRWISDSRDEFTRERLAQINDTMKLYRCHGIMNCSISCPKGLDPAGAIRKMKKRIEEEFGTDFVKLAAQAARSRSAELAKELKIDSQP

In the case of `COc1[nH]c(=O)c(C(=O)[C@@H](C)C[C@H](C)[C@@H](Cl)CCl)c(O)c1OC` [Atpenin A5, atpenin A5], the IC50 (bovine complex II) is given as 0.004 µM, the IC50 (Succinate-cyt c activity [1]) is given as 0.007 ± 0.0003 µM and the IC50 (P. y. yoelii complex II) is given as 4.2 ± 0.2 µM. For the same compound, the “Fold lower sensitivity of P. y. yoelii complex II to atpenin A5” value (P. y. yoelii complex II) was “about 600 fold” and the IC50 [2] was over 50 µM.
In the case of `Cc1cc(O)c2c(c1)O[C@@]1(C)CC[C@H]3C(C)(C)CCC[C@]34CO[C@@H]2[C@H]41` [Siccanin, siccanin], the “Inhibition of the SQR activity of complex II” value (E. tenella complex II; E. tenella) is reported as “did not inhibit”, the IC50 (E. tenella complex II; E. tenella, SQR activity of complex II, read-out: IC50 determined for succinate-dUQ activity) is reported as over 50 µM and the “Inhibition of E. tenella complex II” value (E. tenella complex II) is reported as “did not inhibit”. For the same compound, the IC50 (complex II [3]) was 0.19 µM, the IC50 (complex II [4]) was 1.48 µM and the IC50 (Succinate-cyt c activity [1]) was 9.3 ± 1 µM. The IC50 (complex II [5]) was 0.368 µM, the IC50 (Succinate-cyt c activity [6]) was 861 ± 822 µM and the IC50 (complex II [7]) was 1.17 µM. The IC50 [2] was 4 ± 0.6 µM.
For `CC(C)Oc1cccc(NC(=O)c2ccccc2C(F)(F)F)c1` [Flutolanil, flutolanil], the “Inhibition of E. tenella complex II” value (E. tenella complex II) is given as “did not inhibit”, the IC50 (Succinate-cyt c activity [1]) is given as over 100 µM and the IC50 (Succinate-cyt c activity [6]) is given as over 50 µM. The IC50 (P. y. yoelii complex II) was over 100 µM, the IC50 [2] was over 50 µM and the IC50 (Ascaris suum complex II) was 0.081 µM.
For `CC1=C(C(=O)Nc2ccccc2)SCCO1` [Carboxin, carboxin], the “Inhibition of E. tenella complex II” value (E. tenella complex II) is listed as “did not inhibit”, the IC50 (bovine complex II) is listed as 1 µM and the IC50 (Succinate-cyt c activity [1]) is listed as 3.8 ± 0.1 µM. The IC50 (P. y. yoelii complex II) was 3.6 ± 1 µM and the IC50 [2] was over 50 µM.
For `O=C(O)/C=C/C(=O)O` [fumarate], the “NADH oxidase specific activity after addition” value [8] was 1.3 ± 0.3 μmol/min/mg protein.
With `O=C(O)CC(=O)O` [malonate] the “Effect on NADH oxidase / fumarate-dependent NADH oxidation activity” value ([8]; 2 mM KCN on NADH oxidase, 5 mM malonate on fumarate-restored activity in presence of KCN) was “abolished; also recorded: completely inhibited” and the “NADH oxidase specific activity after addition” value [8] was −0.5 ± 0.3 μmol/min/mg protein.
For `C/C=C(C)/C=C/C=C/[C@H](OC)[C@@H](C)[C@@H](OC)[C@@H](C)CCc1oc2c(O)c(OC)cc(OC)c2c(=O)c1C` [Stigmatellin, stigmatellin], the “Percentage inhibition of succinate-cyt c activity” value ([2]; E. tenella, 100 nM stigmatellin, positive control for complex III inhibition) was 78.4 ± 13.1% ^2.

Reference: PMC6356742, “Novel Characteristics of Mitochondrial Electron Transport Chain from Eimeria tenella” (Genes, 2019)
